Test results reported in patent US9480671B2, “Reduction of risk of obesity” (Nestec S.A., priority 2009, dated 2016).

Tests used:
[1] = tested on: clonal preadipocytes; conditions: compared to PPAR agonists or saturated, mono-unsaturated and n-3 polyunsaturated fatty acids; cited from earlier work
[2] = generally observed, estimated; cited from earlier work
[3] = Fatty acid composition in plasma triglycerides of guinea pig pups after suckling/weaning diet; format: in vivo; conditions: compared to the control group, Table 3
Description: (§1) This example investigates the effect of feeding diets supplemented or not with ARA to newborn guinea pig pups on the development of total fat mass of the pups in the post-weaning period. The infant guinea pig is considered to be a good animal model to study the development fat mass in human infants: Indeed, like newborn human infants, guinea pig pups are born with an appreciable amount of body fat whilst newborn rat and mice pups are very lean. Newborn male guinea pigs were divided into two groups with 20 animals per group. Each group was fed a suckling/weaning diet in which 44% of the energy was supplied by fat for 21 days. The different diets were isocaloric and differed only in their ARA contents. The ARA diet contained 1.5% ARA based on total fatty acids and the control diet contained no ARA. The group receiving ARA diet is coded “ARA diet” or “+AA” in the below and in the figures. The group receiving no ARA is coded “control diet” or −AA″ in the below and in the figures. The levels of linoleic acid and α-linolenic acid were kept relatively constant between the diets such that the ratio of linoleic acid to α-linolenic acid was about 35. […] Body weight and fat mass were recorded at days 21, 51, 79, 107, 128 and 136 and plasma fatty acid composition, and plasma insulin concentrations were recorded at day 21 and day 136.

[4] = Fatty acid composition in plasma phospholipids of guinea pig pups after suckling/weaning diet; format: in vivo; conditions: compared to the control group, Table 2
Description: as §1

Row | SMILES | differentiation of clonal preadipocytes [1] | maximum amount of ARA in the diet that does not induce adverse effects [2] | incorporation of ARA in plasma triglycerides [3] | incorporation of ARA in plasma phospholipids [4]
1 | CCCCC/C=C\C/C=C\C/C=C\C/C=C\CCCC(=O)O [ARA, arachidonic acid (C20:4n-6)] | substantially promoted | about 100 mg ARA/kg/day | higher | higher
2 | CCCCC[C@H](O)/C=C/[C@@H]1[C@H]2C/C(=C/CCCC(=O)O)C[C@H]2C[C@H]1O [carbacyclin, reference compound] | mimicked | – | – | –
